From the supplement of paper PMC10307832

Assays:
Assay in all cases: relative viability (nuclei count vs DMSO), 5 days (fraction); higher = more cells survive
Kobe2602 + Pictilisib = compound: C1=CC(=CC=C1NC(=S)NNC2=C(C=C(C=C2[N+](=O)[O-])C(F)(F)F)[N+](=O)[O-])F [Kobe2602] + CS(=O)(=O)N1CCN(Cc2cc3nc(-c4cccc5[nH]ncc45)nc(N4CCOCC4)c3s2)CC1 [Pictilisib] (partner 1 µM)
In short: (§1)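 Five library-drug doses in √10 steps were combined with a fixed anchor-drug dose, or a single drug was given alone, by pin tool to lung cancer cell lines in 1536-well plates the day after seeding. Nuclei were stained and counted after 5 days. Relative viability is the nuclei count in treated wells over that in vehicle wells, taken as the median of duplicate plates.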

Zosuquidar + Navitoclax = compound: O[C@@H](COc1cccc2ncccc12)CN1CCN([C@@H]2c3ccccc3[C@@H]3[C@H](c4ccccc42)C3(F)F)CC1 [Zosuquidar] + CC1(C)CCC(c2ccc(Cl)cc2)=C(CN2CCN(c3ccc(C(=O)NS(=O)(=O)c4ccc(N[C@H](CCN5CCOCC5)CSc5ccccc5)c(S(=O)(=O)C(F)(F)F)c4)cc3)CC2)C1 [Navitoclax] (partner 0.5 µM)
In short: as §1

Kobe2602 + Palbociclib = compound: C1=CC(=CC=C1NC(=S)NNC2=C(C=C(C=C2[N+](=O)[O-])C(F)(F)F)[N+](=O)[O-])F [Kobe2602] + CC(=O)c1c(C)c2cnc(Nc3ccc(N4CCNCC4)cn3)nc2n(C2CCCC2)c1=O [Palbociclib] (partner 0.5 µM)
In short: as §1

Zosuquidar + Linsitinib = compound: O[C@@H](COc1cccc2ncccc12)CN1CCN([C@@H]2c3ccccc3[C@@H]3[C@H](c4ccccc42)C3(F)F)CC1 [Zosuquidar] + C[C@]1(O)C[C@@H](c2nc(-c3ccc4ccc(-c5ccccc5)nc4c3)c3c(N)nccn32)C1 [Linsitinib] (partner 1 µM)
In short: as §1

Row | Cell Line | relative viability (Kobe2602 + Pictilisib; first compound 0.2 µM) | relative viability (Kobe2602 + Pictilisib; first compound 0.6325 µM) | relative viability (Kobe2602 + Pictilisib; first compound 2 µM) | relative viability (Kobe2602 + Pictilisib; first compound 6.325 µM) | relative viability (Kobe2602 + Pictilisib; first compound 20 µM) | relative viability (Zosuquidar + Navitoclax; first compound 0.01 µM) | relative viability (Zosuquidar + Navitoclax; first compound 0.03162 µM) | relative viability (Zosuquidar + Navitoclax; first compound 0.1 µM) | relative viability (Zosuquidar + Navitoclax; first compound 0.3162 µM) | relative viability (Zosuquidar + Navitoclax; first compound 1 µM) | relative viability (Kobe2602 + Palbociclib; first compound 0.2 µM) | relative viability (Kobe2602 + Palbociclib; first compound 0.6325 µM) | relative viability (Kobe2602 + Palbociclib; first compound 2 µM) | relative viability (Kobe2602 + Palbociclib; first compound 6.325 µM) | relative viability (Kobe2602 + Palbociclib; first compound 20 µM) | relative viability (Zosuquidar + Linsitinib; first compound 0.01 µM) | relative viability (Zosuquidar + Linsitinib; first compound 0.03162 µM) | relative viability (Zosuquidar + Linsitinib; first compound 0.1 µM) | relative viability (Zosuquidar + Linsitinib; first compound 0.3162 µM) | relative viability (Zosuquidar + Linsitinib; first compound 1 µM)
1 | NCI-H1395 | 0.612 | 0.664 | 0.617 | 0.65 | 0.816 | 1.11 | 1.08 | 1.12 | 1.28 | 1.15 | 0.636 | 0.69 | 0.638 | 0.589 | 0.647 | 1.39 | 1.17 | 0.796 | 1.04 | 1.1
2 | NCI-H2085 | 0.484 | 0.448 | 0.483 | 0.466 | 0.489 | 1.13 | 1.06 | 1.06 | 1.2 | 1.14 | 0.506 | 0.481 | 0.508 | 0.489 | 0.418 | 0.867 | 0.982 | 0.919 | 0.901 | 0.995
3 | NCI-H1944 | 0.344 | 0.381 | 0.353 | 0.349 | 0.374 | 1.06 | 1.02 | 1 | 1.18 | 0.945 | 0.351 | 0.343 | 0.311 | 0.333 | 0.371 | 1.21 | 1.17 | 1.08 | 1.09 | 1.17
4 | NCI-H322M | 0.566 | 0.533 | 0.534 | 0.511 | 0.554 | 1.26 | 1.16 | 1.08 | 1.29 | 1.14 | 0.477 | 0.535 | 0.485 | 0.491 | 0.559 | 0.917 | 0.859 | 0.729 | 0.851 | 0.922
5 | NCI-H647 | 0.432 | 0.483 | 0.455 | 0.425 | 0.567 | 1.02 | 1.1 | 0.986 | 1.14 | 1.06 | 0.334 | 0.467 | 0.373 | 0.425 | 0.409 | 1.16 | 1.19 | 1.3 | 1.28 | 1.24
6 | NCI-H1792 | 0.24 | 0.337 | 0.389 | 0.252 | 0.303 | 0.603 | 0.621 | 0.53 | 0.635 | 0.359 | 0.634 | 0.707 | 0.653 | 0.671 | 0.682 | 0.545 | 0.438 | 0.431 | 0.572 | 0.579
7 | LK-2 | 0.642 | 0.597 | 0.534 | 0.542 | 0.609 | 0.989 | 0.931 | 0.875 | 0.954 | 0.847 | 0.904 | 0.628 | 0.81 | 0.649 | 0.687 | 0.663 | 0.745 | 0.515 | 0.722 | 0.574
8 | NCI-H1755 | 0.445 | 0.476 | 0.421 | 0.439 | 0.435 | 0.988 | 1.01 | 0.954 | 1.07 | 0.949 | 0.457 | 0.467 | 0.484 | 0.459 | 0.465 | 0.948 | 0.977 | 0.958 | 1.01 | 0.965
9 | EPLC-272H | 0.321 | 0.458 | 0.294 | 0.345 | 0.374 | 1.08 | 1.28 | 1.1 | 1.07 | 0.984 | 0.337 | 0.357 | 0.352 | 0.321 | 0.359 | 1.24 | 1.22 | 1.1 | 1.12 | 1.09
10 | NCI-H2228 | 0.552 | 0.372 | 0.334 | 0.334 | 0.33 | 1.12 | 0.679 | 0.922 | 1.12 | 0.775 | 0.843 | 0.625 | 0.687 | 0.691 | 0.838 | 0.659 | 0.922 | 0.552 | 0.515 | 0.685
